# From US8637467B2, “Pharmaceutical being used for treating cancer and fibrosis disease and the composition and uses thereof” (Wuxi MTLH Biotechnology Co., Ltd., priority 2008, dated 2014)
# Where no end group is shown, it is not given here.
# Tests used:
# [1] = test system: α-SMA mRNA; assay: RT-PCR of α-SMA mRNA expression in HSC; assay type: cell-based, SD rat; settings: after 48 hours, FIG. 4
# Experimental: HSC from SD rats were separated using centrifuging on gradient created by Pronase-collagenase and Nycodenz. HSC cells at 1.5×10^5/cm2 was plated at 6-well plate, or culture dish (100 mm diameter). The culture medium is DMEM with 20% serum from newborn calf. The purity of HSC cells was determined using Vitamin A self-fluorescence and anti-Desmin immunocytochemistry experiments. Cell viability was determined using trypan blue staining. First generation HSC's purity and viability were 90% and 95% respectively. HSC can self-activate if grown in non-ECM condition, which means HSC can express α-SMA, and Vitamin A drop disappears. After cell fusion, activated HSC is released with trypsin, and propagate.
# Use Trizol reagent to extract total RNA, then conduct two-step RT-PCR according to kit instructions.
# [2] = test system: human liver cancer cell BEL-7402; assay: Cancer cell attachment to base membrane; assay type: cell-based; settings: incubated with cancer cells for 12 hours, FIG. 6
# [3] = test system: human liver cancer cell BEL-7402; assay: Migration of liver cancer cells through base membrane; assay type: cell-based
# Experimental: Peptide SEQ ID No:1 from example 1 can inhibit human liver cancer cell BEL-7402 migration from base membrane, at 0.01, 0.1, or 1 mg/ml (12 hour incubation).
# [4] = test system: phosphorylation of Erk1/2; assay: Western blot, PDGFR intracellular Ras-Raf signaling pathway in HUVEC; assay type: cell-based, Human; settings: 6 hours, 10 ug/ml (2 uM)
# Experimental: Various concentration of Peptide SEQ ID No:1 was incubated with Human Umbilical Vein Endothelial Cells (HUVEC) cells for 6 hours. Protein was extracted from these cells and western blot was performed. Antibody for p-stat1: Antibody against phophorylated-Tyr701; Antibody for p-MEK1/2: Antibody against phophorylated-Ser217/221 peptide; Antibody for p-Erk1/2: Antibody against phophorylated-Ser202/204. beta-Actin was a control to make sure all lanes are loaded with same amount of protein.
# [5] = test system: human breast cancer MDA-MB-435; assay: Human breast cancer MDA-MB-435 xenograph nude mice; assay type: in vivo; settings: 0.5 mg/kg IV, 6 times a week, 4 weeks
# Experimental: Experimental animals: Female BALB/cA nude mice, age 35-40 days, weight 18-22 g, provided by Shanghai Silaike Experimental Animal Co. Ltd., certificate number: SOCK (Shanghai) 2007-0005.
# The tumor of xenograph nude mice grew to 100˜300 mm^3. Tumor mice were divided into different groups for drug testing. In the experiment below, there were 12 nude mice in negative control group, and 6 nude mice in the group with tested drug. Tumor diameter was measured three times each week, and mice weight was measured at the same time.
# T/C (relative tumor inhibition rate) % was calculated as below: • (1) tumor volume, TV, calculated as below: TV=½×a×b^2 • A and b are length and width. • (2) relative tumor volume, RTV, calculated as below: RTV=TVt/TV0. • TV0 ? is tumor volume at the beginning of drug use (d0), TVt is tumor volume at later time point. • (3) relative tumor inhibition rate T/C (%), calculate as below:
# [formula] TRTV: treatment group RTV; CRTV: negative control RTV
# Peptide SEQ ID No:1 was given through tail vein (IV), at dosing of 2 mg/kg, 1 mg/kg, 0.5 mg/kg, 6 times a week. Docetaxol was positive control, at dosing of 20 mg/kg, once a week. Negative control was given saline solution. The xenograph nude mice were treated for 4 weeks.
substance,measurement,setting,value
SKVTKKYHEVLQLRPKTGVRGLHKSLTDVALEHHEECDCVCRGSTGG-OH (cysteines drawn unpaired) [Peptide SEQ ID NO:1],α-SMA mRNA expression (RT-PCR),[1],inhibits α-SMA mRNA expression
same,cancer cell attachment to base membrane,[2],inhibited cancer cell attachment to base membrane
same,migration from base membrane,"[3]; BEL-7402, 0.01, 0.1, or 1 mg/ml, 12 hour incubation",can inhibit
same,cancer cell migration ability through base membrane,"[3]; incubated with cancer cells for 12 hours, FIG. 7",inhibits cancer cell migration ability through base membrane
same,phosphorylation of Erk1/2 (western blot),[4],significantly inhibits phosphorylation of Erk1/2
same,T/C(%) relative tumor inhibition rate,[5],49.40%
